{
  "source": "paper PMC3947597",
  "about": "(Bioorganic & medicinal chemistry, 2013)",
  "test_system": "tubulin (colchicine site)",
  "assay": "Inhibition of [3H]colchicine binding to tubulin",
  "conditions": "1.0 µM tubulin, 5.0 µM [3H]colchicine, 10 min at 37 °C",
  "data": [
    {"smiles": "COc1ccc(/C=C\\c2cc(OC)c(OC)c(OC)c2)cc1O", "note": "[CA4, combretastatin A-4]", "values": [
      {"measurement": "Inhibition of colchicine binding (%) ±SD, 1 µM", "setting": "inhibitor 1 µM", "result": "88±2", "unit": "%"},
      {"measurement": "Inhibition of colchicine binding (%) ±SD, 5 µM", "setting": "inhibitor 5 µM", "result": "98±0.5", "unit": "%"}
    ]}
  ]
}
